These results are taken from patent US8426394B2, “Progesterone antagonists such as CDB-4124 in the treatment of endometriosis, uterine fibroids, dysmenorrhea, breast cancer, etc” (Repros Therapeutics Inc., priority 2008, dated 2013).

In data set [1] the target is T1, glucocorticoid receptor (rbGR) (Oryctolagus cuniculus, UniProt P59667).
T1 construct: cytosol containing PR or GR were prepared in TEGMD buffer; from tissue; host or cells: thymus of estradiol-primed immature rabbits (cytosol)
T1 sequence (P59667 1-772): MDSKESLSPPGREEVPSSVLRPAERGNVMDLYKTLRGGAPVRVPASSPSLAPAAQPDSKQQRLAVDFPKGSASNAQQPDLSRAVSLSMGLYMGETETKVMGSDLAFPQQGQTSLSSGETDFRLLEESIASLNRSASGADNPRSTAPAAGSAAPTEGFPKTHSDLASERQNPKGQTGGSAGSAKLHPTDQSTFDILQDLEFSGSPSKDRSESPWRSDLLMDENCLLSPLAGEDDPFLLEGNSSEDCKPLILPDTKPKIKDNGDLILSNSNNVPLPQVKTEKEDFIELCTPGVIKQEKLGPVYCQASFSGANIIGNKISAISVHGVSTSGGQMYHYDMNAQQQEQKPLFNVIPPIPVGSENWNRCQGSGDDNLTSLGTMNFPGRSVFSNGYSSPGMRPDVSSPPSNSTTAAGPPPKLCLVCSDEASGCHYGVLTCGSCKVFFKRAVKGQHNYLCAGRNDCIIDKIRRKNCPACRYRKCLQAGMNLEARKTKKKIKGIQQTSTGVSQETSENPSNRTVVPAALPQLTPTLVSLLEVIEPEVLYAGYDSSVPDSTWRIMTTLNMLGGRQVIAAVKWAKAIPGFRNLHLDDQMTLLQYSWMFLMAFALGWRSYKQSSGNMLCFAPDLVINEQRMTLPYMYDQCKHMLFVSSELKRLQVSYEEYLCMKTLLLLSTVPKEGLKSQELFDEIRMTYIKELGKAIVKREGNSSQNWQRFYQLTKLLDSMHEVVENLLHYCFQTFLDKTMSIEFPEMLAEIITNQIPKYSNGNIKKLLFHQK
The data set can be described thus: Glucocorticoid receptor binding / anti-glucocorticoid receptor activity. Further details: species or system rabbit. Here is the method: Certain antiprogestins were tested in receptor-binding assays for their ability to bind rabbit progesterone receptor (rbPR) and glucocorticoid receptor (rbGR). […] For PR binding, the cytosol was incubated with 6 nM 1,2-[^3H]progesterone (50.0 Ci/mmole) and competitors were added at concentrations from 2 to 100 nM. For binding to GR, the cytosol was incubated with 6 nM 6,7-[^3H]-dexamethasone (40 Ci/mmol) and test compounds were added at concentrations from 20 to 100 nM. After overnight incubation at 4 C, bound and unbound [^3H] steroids were separated by addition of dextran-coated charcoal and centrifugation at 2100×g for 15 min at 4 C. Supernatants containing the [3H]-steroid receptor complexes were decanted into vials containing 4 ml Optifluor (Packard Instrument Co.), vortexed, equilibrated in a liquid scintillation counter for 30 minutes and then counted for 2 minutes. […] The standards for the PR and GR assays were unlabeled progesterone and dexamethasone, respectively.

Data set [2] deals with progesterone-induced endometrial proliferation in the rabbit uterus. As to the kind of experiment: anti-McGinty and anti-Clauberg assays (biological activity in the rabbit uterus). The settings on record: in comparison to RU 486 and CDB-2914. The format is in vivo. The source says: Also given in Table 1 are the relative biological activities of the same compounds in the rabbit uterus by the anti-McGinty and anti-Clauberg assays. Compound CDB-2914 (listed at the end of the Table) was used as the control or reference compound (rabbit Biological Activity=1.00) for these experiments because results of experiments using CDB-2914 have been published before (Hild-Petito et al., 1996; Passaro et al., 1997; Reel et al., 1998; Lamer et al., 2000). For the anti-McGinty test, immature female rabbits received a subcutaneous injection of 5 μg estradiol in 10% ethanol/sesame oil daily for 6 consecutive days. On day 7, animals underwent sterile abdominal surgery to ligate a 3-4 cm segment of both uterine horns. The test compound in appropriate solvent was injected intraluminally into the ligated segment of one uterine horn and vehicle alone into the other. […] Five micron sections stained with hematoxylin and cosin were evaluated microscopically for the degree of endometrial glandular proliferation. The percent inhibition of endometrial proliferation for each rabbit was calculated and the mean of the group of five animals recorded. […] Five micron sections stained with hematoxylin and eosin were evaluated microscopically for the degree of endometrial glandular proliferation. […]

The target in another data set is T2, glucocorticoid receptor (Homo sapiens, UniProt P04150).
T2 sequence (P04150 1-777): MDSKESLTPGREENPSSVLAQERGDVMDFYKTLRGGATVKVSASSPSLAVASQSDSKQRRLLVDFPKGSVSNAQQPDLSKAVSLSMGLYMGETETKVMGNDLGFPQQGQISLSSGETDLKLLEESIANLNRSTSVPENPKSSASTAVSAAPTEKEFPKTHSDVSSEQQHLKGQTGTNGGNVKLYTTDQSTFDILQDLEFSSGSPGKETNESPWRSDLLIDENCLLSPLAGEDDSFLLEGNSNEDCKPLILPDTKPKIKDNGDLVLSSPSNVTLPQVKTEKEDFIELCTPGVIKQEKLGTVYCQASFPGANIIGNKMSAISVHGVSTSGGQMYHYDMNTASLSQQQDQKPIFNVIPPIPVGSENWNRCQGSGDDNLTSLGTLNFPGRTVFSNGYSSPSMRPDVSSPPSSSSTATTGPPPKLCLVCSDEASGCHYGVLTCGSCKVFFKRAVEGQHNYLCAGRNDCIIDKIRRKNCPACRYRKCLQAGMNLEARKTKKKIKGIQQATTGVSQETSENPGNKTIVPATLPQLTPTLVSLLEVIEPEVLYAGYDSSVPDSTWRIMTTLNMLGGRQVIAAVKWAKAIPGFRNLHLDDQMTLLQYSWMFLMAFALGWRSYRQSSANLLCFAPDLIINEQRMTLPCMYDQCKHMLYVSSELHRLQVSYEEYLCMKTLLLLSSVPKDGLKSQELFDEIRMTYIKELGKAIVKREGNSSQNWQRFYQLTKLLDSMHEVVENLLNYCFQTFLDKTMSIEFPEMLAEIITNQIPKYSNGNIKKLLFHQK
The settings on record: Attardi et al., 2002; cited from earlier work.

For data set [3], the system named is pre-menopausal adult women diagnosed with endometriosis. As to the kind of experiment: Six month study of Proellex (CDB-4124) in the treatment of endometriosis. The following applies: Lucrin. The format is in vivo, human. The method, then:
Pain reduction also occurred more rapidly than with the active control, Lucrin®. The response of pain to treatment in this study was analyzed in two ways. Patients in the study maintained daily pain diaries to record the severity and frequency of pain. In addition, at each office visit, patients filled out endometriosis symptom surveys that included a questionnaire that evaluated intensity of pain on a bad day on a scale of 0-10 with 10 being the greatest intensity. […] There appeared to be a dose dependent effect on pain reduction. […] This decrease in duration of pain was statistically better (p=0.0012) than the 117.8 (74%; standard deviation 51.4 days) pain free days achieved with Lucrin®. […] Patients on CDB-4124 12.5 mg and 25 mg doses had 115.9 (66%; standard deviation 69.2 days) and 133.6 (75%; standard deviation 27.4 days) pain free days, respectively. […] The 25 mg and 12.5 mg doses of CDB-4124 were not statistically different from Lucrin®. […] The intensity of pain was assessed by the question: “On a […], with 0 being no pain and 10 being extreme pain, how intense was your pain on a bad day?” The mean scores for intensity of pain at baseline were 6.3 for the CDB-4124 groups and 6.1 for the Lucrin® group. […] At month three all four active treatment groups had statistically significant reduction in pain compared with baseline, with the following scores: 3.7 (p=0.03) for 12.5 mg CDB-4124, 3.2 (p=0.03) for 25 mg CDB-4124, 1.6 (p=0.015) for 50 mg CDB-4124 and 1.5 (p=0.016) for Lucrin®. These dose related reductions continued until month six when the values for pain intensity were 2.0 (p=0.008), 2.8 (p=0.023), 0.6 (p=0.004) and 0.7 (p=0.016), respectively. Two months after stopping treatment pain returned and was of similar intensity in all four treatment groups.

The nature of data set [4]: Serum corticosterone in rats. The settings on record: progesterone, CDB-4124 and RU-486 groups compared.

As for `CC(=O)OCC(=O)[C@@]1(OC(C)=O)CCC2C3CCC4=CC(=O)CCC4=C3C(c3ccc(N(C)C)cc3)C[C@@]21C` (stereo partly drawn) [CDB-4059, 21-acetoxy-17α-acetoxy-11β-(4 N,N-dimethylaminophenyl)-19-norpregna-4,9-diene-3,20-dione], the “anti-glucocorticoid receptor activity / glucocorticoid receptor binding” value in data set [1] was “minimal”. Besides, the “antiprogestin activity in the rabbit uterus” value in data set [2] is on record as “strong”.

In the case of `CNc1ccc([C@H]2C[C@@]3(C)[C@@H](CC[C@]3(OC(C)=O)C(=O)COC)[C@@H]3CCC4=CC(=O)CCC4=C32)cc1` [CDB-4453, 21-methoxy-17α-acetoxy-11β-(4-N-methylaminophenyl)-19-norpregna-4,9-diene-3,20-dione], on glucocorticoid receptor, the “anti-glucocorticoid activity relative to parent CDB-4124” value is recorded as “even lower”.

As for `CCNC(=O)[C@@H]1CCCN1C(=O)[C@H](CCCNC(=N)N)NC(=O)[C@H](CC(C)C)NC(=O)[C@@H](CC(C)C)NC(=O)[C@H](Cc1ccc(O)cc1)NC(=O)[C@H](CO)NC(=O)[C@H](Cc1c[nH]c2ccccc12)NC(=O)[C@H](Cc1c[nH]cn1)NC(=O)[C@@H]1CCC(=O)N1` [Lupron®, leuprolide acetate, reference compound], the “intensity of pain on a bad day (score)” value amounted to 0.7 in data set [3] (month six, scale 0-10, p=0.016) and 1.5 in data set [3] (month three, scale 0-10, baseline 6.1, p=0.016). On to `CC#C[C@]1(O)CC[C@H]2[C@@H]3CCC4=CC(=O)CCC4=C3[C@@H](c3ccc(N(C)C)cc3)C[C@@]21C` [RU 486, 11β-[p-(Dimethylamino)phenyl]-17β-hydroxy-17-(1-propynyl)estra-4,9-dien-3-one, reference compound], for which the “differences in serum corticosterone between treatment groups” value in data set [4] was “No differences”.
